According to BindingDB's records for doi:10.7270/Q2CR5RSX (Vanderbilt Screening Center For Gpcrs, Ion Channels and …, 2009):

Target: T1, Muscarinic acetylcholine receptor M5 (Homo sapiens, UniProt P08912)
T1 sequence (P08912 whole entry): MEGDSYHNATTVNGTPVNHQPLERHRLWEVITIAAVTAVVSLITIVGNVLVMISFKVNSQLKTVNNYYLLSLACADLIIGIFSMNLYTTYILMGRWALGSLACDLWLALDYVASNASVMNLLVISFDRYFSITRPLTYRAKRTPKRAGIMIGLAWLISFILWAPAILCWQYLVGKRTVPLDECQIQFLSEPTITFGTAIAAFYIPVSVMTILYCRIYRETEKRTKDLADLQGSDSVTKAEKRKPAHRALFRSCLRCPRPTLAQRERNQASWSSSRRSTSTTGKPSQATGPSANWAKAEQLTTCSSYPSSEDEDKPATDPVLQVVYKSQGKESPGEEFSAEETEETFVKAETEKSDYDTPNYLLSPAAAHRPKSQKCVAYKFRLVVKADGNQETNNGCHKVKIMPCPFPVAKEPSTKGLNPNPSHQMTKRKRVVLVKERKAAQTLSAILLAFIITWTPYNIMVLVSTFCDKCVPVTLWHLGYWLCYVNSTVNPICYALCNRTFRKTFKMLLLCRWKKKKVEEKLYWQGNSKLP
Experiment: compound effect on ACh competition at M5, biochemical, [3H]N-methylscopolamine, acetylcholine (AID 2194)

COc1ccc(CN2C(=O)C(=O)c3cc(OC(F)(F)F)ccc32)cc1 [VU0238429] gave an EC50 of 210 nM.
